# System: 633275-114-R-J1-PDC complex spheroids, viability
# Test: Anticancer human tumor 633275-114-R-J1-PDC patient-derived endometrial adenocarcinoma cell line growth inhibition [GQUAD]
# Settings: for IC50: curve of first compound; for viability, T/C: stronger effect = lower value
# Description: DNA G-quadruplex Stabilizer Agents in Combinations in Complex Spheroids
# A high-throughput screen of multi-cell type tumor spheroids was designed to identify active combinations of DNA G-quadruplex stabilizer agents and targeted small molecules. Complex spheroids include a stromal component modeled by human endothelial cells (HUVEC) and fibroblasts modeled by human mesenchymal stem cells (MSCs). The concentration ranges selected for each drug and investigational agent were based upon clinically achievable concentrations if the clinical Cmax of the agent was known.
# Compounds. The drugs and investigational agents: pidnarulex (CX-5461; NSC782164), APTO-253 (NSC789042), BRACO-19 (NSC847499), peposertib (NSC802822), ceralasertib (NSC780249), elimusertib (NSC800525), camonsertib (NSC841442), AZD-1390 (NSC803789), olaparib (NSC753686), talazoparib (NSC767125), ART-558 (NSC835418), sotorasib (NSC818433), MRTX-1133 (NSC836407), SN-38 (NSC673596), topotecan (NSC609699), etoposide (NSC141540), doxorubicin (NSC123127), gemcitabine (NSC613327), 5-fluorouracil (NSC19893), paclitaxel (NSC125973), vemurafenib (NSC761431), panobinostat (NSC761190), R-306465 (JNJ-16241199; NSC773264), adavosertib (NSC754352), TP-3654 (NSC805149), carboplatin (NSC241240), KSQ-4279 (NSC840948), and staurosporine (NSC755774) were obtained from the National Cancer Institute (NCI) Developmental Therapeutics Program Chemical Repository (34). The FDA-approved anticancer drug set is available from the NCI Developmental Therapeutics Program. […] The stock solutions were prepared in dimethyl sulfoxide (DMSO, Sigma-Aldrich, St. Louis, MO, cat. D2650) at 800-fold the tested concentration and stored at -70 degrees C prior to their use. All drugs and investigational agents were tested over a range starting from a high concentration at or near the clinical Cmax and decreasing in half-log increments. If the clinical Cmax for an agent had not been determined, the highest concentration tested was 10 microM.
# 2.3 Cell Culture. All cells were maintained in an incubator at 37 degrees C and 5% CO2 with 95% humidity. The PDC lines were cultured according to standard operating procedures established by the NCI PDMR. All PDCs were thawed and cultured in Matrigel-coated flasks prepared with a working solution of 1X Ham's F-12 nutrient mix, without supplementation (Invitrogen, cat. 11765054), 100 U/mL penicillin-streptomycin (Invitrogen, cat. 15140122), and 2.5% Matrigel (Corning Inc., cat. 354248) for the first three passages. The 857933-349-R-J2-PDC line was cultured in 6C/Colon 1B media, which includes advanced DMEM/F-12 (Thermo Fisher Scientific, cat. 12634028), 10 mM HEPES (Thermo Fisher Scientific, cat. 15630080), 1X GlutaMAX supplement (Thermo Fisher Scientific, cat. 35050061), 0.1 mg/mL primocin (InvivoGen, cat. ant-pm-2), 10% defined fetal bovine serum, heat inactivated (HyClone Laboratories Inc., cat. SH30070.03HI), 50% L-WRN conditioned media (ATCC, cat. CRL-3276), 1.25 mM N-Acetyl-L-cysteine (Sigma-Aldrich, cat. A9165), 10 mM nicotinamide (Sigma-Aldrich, cat. N0636), 1X B-27 supplement (Thermo Fisher Scientific, cat. 17504044), 1X N-2 supplement (Thermo Fisher Scientific, cat. 17502048), 10 microM Y-27632 dihydrochloride (Tocris Bioscience, cat. 1254), and 50 ng/mL human EGF recombinant protein (Thermo Fisher Scientific, cat. PHG0311). The 485176-168-R4-J1-PDC line was cultured in Panc media, which includes all 6C/Colon 1B media components plus 100 ng/mL human FGF-10 (Thermo Fisher Scientific, cat. 100-26), 500 nM SB-431542 (Selleckchem, cat. S1067), and gastrin (Tocris, cat. 3006).
# […]
# [1] = second compound 0.0316 µM, first compound 0.0316 µM
# [2] = second compound 0.0316 µM, first compound 0.1 µM
# [3] = second compound 0.0316 µM, first compound 0.316 µM
# [4] = second compound 0.0316 µM, first compound 1 µM
# [5] = second compound 0.0316 µM, first compound 3.16 µM
# [6] = second compound 0.0316 µM, first compound 10 µM
# [7] = second compound 0.1 µM, first compound 0.0316 µM
# [8] = second compound 0.1 µM, first compound 0.1 µM
# [9] = second compound 0.1 µM, first compound 0.316 µM
# [10] = second compound 0.1 µM, first compound 1 µM
# [11] = second compound 0.1 µM, first compound 3.16 µM
# [12] = second compound 0.1 µM, first compound 10 µM
# [13] = second compound 0.316 µM, first compound 0.0316 µM
# [14] = second compound 0.316 µM, first compound 0.1 µM
# [15] = second compound 0.316 µM, first compound 0.316 µM
# [16] = second compound 0.316 µM, first compound 1 µM
# [17] = second compound 0.316 µM, first compound 3.16 µM
# [18] = second compound 0.316 µM, first compound 10 µM
# [19] = second compound 1 µM, first compound 0.0316 µM
# [20] = second compound 1 µM, first compound 0.1 µM
# [21] = second compound 1 µM, first compound 0.316 µM
# [22] = second compound 1 µM, first compound 1 µM
# [23] = second compound 1 µM, first compound 3.16 µM
# [24] = second compound 1 µM, first compound 10 µM
# [25] = second compound 3.16 µM, first compound 0.0316 µM
# [26] = second compound 3.16 µM, first compound 0.1 µM
# [27] = second compound 3.16 µM, first compound 0.316 µM
# [28] = second compound 3.16 µM, first compound 1 µM
# [29] = second compound 3.16 µM, first compound 3.16 µM
# [30] = second compound 3.16 µM, first compound 10 µM
# [31] = second compound 10 µM, first compound 0.0316 µM
# [32] = second compound 10 µM, first compound 0.1 µM
# [33] = second compound 10 µM, first compound 0.316 µM
# [34] = second compound 10 µM, first compound 1 µM
# [35] = second compound 10 µM, first compound 3.16 µM
# [36] = second compound 10 µM, first compound 10 µM
# 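Further: spheroids exposed to the agents for seven days.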
# 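Wherever viability, T/C is given: percent of DMSO vehicle control viability which is 100%.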
structure (smiles),measurement,setting,value
CC(=O)O[C@H]1C(=O)[C@@]2(C)[C@H]([C@H](OC(=O)c3ccccc3)[C@]3(O)C[C@H](OC(=O)[C@H](O)[C@@H](NC(=O)c4ccccc4)c4ccccc4)C(C)=C1C3(C)C)[C@]1(OC(C)=O)CO[C@@H]1C[C@@H]2O + CN(C)c1ccc(Nc2c3ccc(NC(=O)CCN4CCCC4)cc3nc3cc(NC(=O)CCN4CCCC4)ccc23)cc1,IC50,second compound 0.0316 µM,< 0.0316 µM
same,IC50,second compound 0.1 µM,< 0.0316 µM
same,IC50,second compound 0.316 µM,< 0.0316 µM
same,IC50,second compound 1 µM,< 0.0316 µM
same,IC50,second compound 3.16 µM,< 0.0316 µM
same,IC50,second compound 10 µM,< 0.0316 µM
same,"viability, T/C",[1],48.9%
same,"viability, T/C",[2],26.1%
same,"viability, T/C",[3],18.4%
same,"viability, T/C",[4],22.6%
same,"viability, T/C",[5],20.9%
same,"viability, T/C",[6],22.7%
same,"viability, T/C",[7],48.3%
same,"viability, T/C",[8],27.3%
same,"viability, T/C",[9],21.6%
same,"viability, T/C",[10],18.9%
same,"viability, T/C",[11],20.5%
same,"viability, T/C",[12],23.5%
same,"viability, T/C",[13],46.4%
same,"viability, T/C",[14],23.6%
same,"viability, T/C",[15],21.2%
same,"viability, T/C",[16],19.1%
same,"viability, T/C",[17],20.7%
same,"viability, T/C",[18],20.4%
same,"viability, T/C",[19],45.9%
same,"viability, T/C",[20],25.5%
same,"viability, T/C",[21],17.5%
same,"viability, T/C",[22],18.8%
same,"viability, T/C",[23],22.4%
same,"viability, T/C",[24],20.8%
same,"viability, T/C",[25],41.4%
same,"viability, T/C",[26],22.8%
same,"viability, T/C",[27],20.4%
same,"viability, T/C",[28],21.3%
same,"viability, T/C",[29],19.6%
same,"viability, T/C",[30],19.8%
same,"viability, T/C",[31],23.8%
same,"viability, T/C",[32],15.3%
same,"viability, T/C",[33],13.8%
same,"viability, T/C",[34],11.8%
same,"viability, T/C",[35],15.2%
same,"viability, T/C",[36],12.9%
CCCS(=O)(=O)Nc1ccc(F)c(C(=O)c2c[nH]c3ncc(-c4ccc(Cl)cc4)cc23)c1F + CN(C)c1ccc(Nc2c3ccc(NC(=O)CCN4CCCC4)cc3nc3cc(NC(=O)CCN4CCCC4)ccc23)cc1,IC50,second compound 0.0316 µM,8.89 µM
same,IC50,second compound 0.1 µM,9.28 µM
same,IC50,second compound 0.316 µM,9.53 µM
same,IC50,second compound 1 µM,8.32 µM
same,IC50,second compound 3.16 µM,5.04 µM
same,IC50,second compound 10 µM,< 0.0316 µM
same,"viability, T/C",[1],93.3%
same,"viability, T/C",[2],97.6%
same,"viability, T/C",[3],98.5%
same,"viability, T/C",[4],100%
same,"viability, T/C",[5],91%
same,"viability, T/C",[6],45.2%
same,"viability, T/C",[7],90.6%
same,"viability, T/C",[8],109%
same,"viability, T/C",[9],103%
same,"viability, T/C",[10],103%
same,"viability, T/C",[11],91.4%
same,"viability, T/C",[12],46.8%
same,"viability, T/C",[13],100%
same,"viability, T/C",[14],108%
same,"viability, T/C",[15],103%
same,"viability, T/C",[16],111%
same,"viability, T/C",[17],85.8%
same,"viability, T/C",[18],48.4%
same,"viability, T/C",[19],97.1%
same,"viability, T/C",[20],106%
same,"viability, T/C",[21],103%
same,"viability, T/C",[22],99.1%
same,"viability, T/C",[23],83.9%
same,"viability, T/C",[24],43.4%
same,"viability, T/C",[25],92.5%
same,"viability, T/C",[26],89%
same,"viability, T/C",[27],94.8%
same,"viability, T/C",[28],94.3%
same,"viability, T/C",[29],69%
same,"viability, T/C",[30],22.3%
same,"viability, T/C",[31],33.7%
same,"viability, T/C",[32],31.8%
same,"viability, T/C",[33],31.6%
same,"viability, T/C",[34],33.6%
same,"viability, T/C",[35],25.1%
same,"viability, T/C",[36],7.58%

# Reference: PubChem BioAssay AID2060505 (Molecular Pharmacology Branch, DTP, NCI, 2025)
